{"source": "patent US20230348538A1", "about": "“METHOD FOR TREATMENT OF DRY EYE COMPRISNG APPLYING P55PIK INHIBITOR” (Wuhan Yicheng Biological Technology Co., Ltd., priority 2020, published 2023)", "key": {"[1]": {"system": "dry eye model induced by 0.2% benzalkonium chloride solution", "experiment": "Benzalkonium chloride dry eye model: Schirmer's test I (phenol red thread)", "type": "in vivo, C57BL/6 mice", "experimental": "The healthy male C57BL/6 mice were kept in a controlled environment with a temperature of (25±1)° C., a relative humidity of (25±5)%, and light-dark cycles (9 AM-9 PM) with simulated dawn and dusk. Forty mice (80 eyes) were treated with 5 μL of 0.2% benzalkonium chloride solution twice a day (8:00 AM and 6:00 PM) for 14 days to induce dry eye symptoms, while the remaining ten mice (20 eyes) received no treatment and served as a baseline control. Modeling was carried out on the 15th day; and the dry eye rat models were screened based on tear film break-up time (BUT), fluorescein sodium staining of corneal, and Schirmer's test I for tear secretion. To assess tear secretion, Schirmer's test I was performed on mice at 3 PM each day using the phenol red thread; general anesthesia was induced by intraperitoneal injection of pentobarbital (50 mg/kg body weight); the lower eyelid was grasped and gently pulled down; front end of the phenol red thread, folded 1 mm, was placed on the conjunctival surface near the outer canthus of the lower eyelid for 15 seconds; the length of the red-stained portion of the phenol red thread was measured and recorded; the eyelid was then closed after the Schirmer's test I to avoid excessive exposure; each eye was tested twice, and the average length of the red-stained portion of the phenol red thread was recorded as the final result. […] Group A, the drug treatment group, was treated with the eye drops comprising 0.1% TAT-[…] peptide, four times a day; Group B, the solvent control group, was treated with eye drops without TAT-[…] peptide, four times a day; and Group C, the blank control group, received no treatment; on days 1, 4, and 7 after treatment, BUT, Schirmer's test I, and fluorescein sodium staining were performed; on the 7th day, the paraffin sections of the conjunctival fornix was stained by PAS stain; and the number of PAS-positive goblet cells was counted."}, "[2]": {"system": "rat model of dry eye caused by low tear secretion", "experiment": "Rat model of dry eye caused by low tear secretion (atropine): lacrimal secretion test (Schirmer's test II)", "type": "in vivo, SD rats", "experimental": "1.2.2 Modeling: a rat model of dry eye caused by low tear secretion, was established using the Burgalassi method of atropine injection into the lacrimal glands; eighteen laboratory rats, with equal numbers of male and female, were given 0.4% oxybucaine hydrochloride eye drops in both eyes and injected with 0.25 mL of 0.5 mg/mL atropine into the lacrimal glands four times a day for both eyes; the results of lacrimal secretion test were recorded 0.5 hours after the atropine injection every day; and the atropine injection was continued until the 7th day.\nGrouping and administration: six laboratory rats, with equal numbers of male and female, were used as the normal control group and were not modeled; the eighteen successfully modeled laboratory rats were randomly divided into three model groups, with 6 rats in each model group, half male and half female; Model group 1 was the blank control group and received no treatment; Model group 2 was the solvent control group and treated with solvent eye drops that contained a solvent but no TAT-N16 peptide; Model group 3 was the drug treatment group and was treated with eye drops comprising 0.1% TAT-N16 peptide; the eye drops was administered four times a day (1 drop/time) for 7 days; the amount of the lacrimal secretion of each eye was recorded on days 0, 4 and 7 after treatment; the expression levels of P55PIK gene and p55PIK protein in the rat eyes of the normal control group and the model groups were detected.\n1.2.2.1 Lacrimal secretion test (Schirmer's test II): due to the smaller eyeballs of SD rats compared to human, the Schirmer tear test strips designed for human use were not suitable for use in the SD rats; therefore, the Schirmer's test II was conducted by cutting a 5 mm x 35 mm Schirmer tear test strip into two strips of 2.5 mm×35 mm each, folding the front end, and lightly placing the Schirmer tear test strip at the junction of the posterior-middle ⅓ of the lower eyelid; after 5 minutes, the Schirmer tear test strips were removed; and the length of the Schirmer tear test strips wetted by tears were measured for 2 minutes and the measurement was repeated three times to obtain an average value; the results were recorded before the treatment, and on the 4th and 7th day after treatment."}, "[3]": {"system": "rabbit model of dry eye (0.1% benzalkonium chloride)", "experiment": "Rabbit model of dry eye: tear film break-up time test", "type": "in vivo, New Zealand white rabbits", "experimental": "(§1) 1.2.1 Grouping: thirty New Zealand white rabbits were randomly divided into three groups, each comprising 10 rabbits: a blank control group, a solvent control group, and a drug treatment group.\n1.2.2 Preparation of a rabbit model of dry eye: the right eye of each rabbit was used to establish a dry eye rabbit model by administering 0.1% benzalkonium chloride eye drops twice a day for 4 weeks. After 4 weeks, the dry eye rabbit model was evaluated, with the conjunctiva appearing dry, tear production being reduced, and Schirmer test values being less than 10 mm/5 min (compared to the control group, where all Schirmer test values were above 10 mm).\n1.2.3 Drug preparation and usage: a liquid formulation of 0.1% TAT-N16 peptide eye drops were prepared by dissolving the peptide raw materials in physiological saline according to a weight ratio of 0.1%. The eye drops comprising 0.1% TAT-N16 peptide were administered 2 drops, 3 times a day for 7 days. […]\n1.3 Specimen collection and animal testing were conducted by the same individual. […] The rabbit conjunctiva appearance, fluorescein staining, tear film break-up time were analyzed using a slit lamp before and on days 4 and 7 after treatment; additionally, the Schirmer's test and conjunctival impression cytology (CIC) were carried out.\n1.3.2 Tear film break-up time test: the fluorescein sodium ophthalmic strips were placed on the lower conjunctival sac for a moment, so that the fluorescein sodium was evenly distributed on the ocular surface; the eyelid was maintained open and observed under cobalt blue filter on a slit lamp; the tear film break-up time was recorded as the number of seconds that elapse between the last blink and the appearance of the first dry spot in the tear film of the cornea; The time from the opening of the eyelid to the appearance of the first dry spot on the tear film was recorded under a slit lamp microscope with cobalt blue light; each eye was measured three times, and the average of the three measurements was recorded in seconds."}, "[4]": {"system": "rabbit model of dry eye (0.1% benzalkonium chloride)", "experiment": "Rabbit model of dry eye: conjunctival impression cytology (CIC), goblet cell density", "type": "in vivo, New Zealand white rabbits", "details": "following medication; statistically significant; FIG. 5", "experimental": "as §1\n1.2.2 Preparation of a rabbit model of dry eye: the right eye of each rabbit was used to establish a dry eye rabbit model by administering 0.1% benzalkonium chloride eye drops twice a day for 4 weeks. After 4 weeks, the dry eye rabbit model was evaluated, with the conjunctiva appearing dry, tear production being reduced, and Schirmer test values being less than 10 mm/5 min (compared to the control group, where all Schirmer test values were above 10 mm). […]\n1.3.3 Conjunctival impression cytology (CIC) examination: CIC examination was performed on days 1, 4, and 7 after treatment; the nitrocellulose membranes were cut into two strips of 3.5 mm×3.5 mm each, soaked in distilled water for 4 h, and then dried; after surface anesthesia, the rough side of the two strips of the nitrocellulose membranes were placed on the nasal and temporal quadrants of the conjunctiva and pressed for 10 seconds to obtain surface epithelial cells; the nitrocellulose membranes were then fixed in 95% ethanol and stained with periodic acid-Schiff (PAS); the number of the goblet cells was counted under an optical microscope and graded according to the Nelson scoring system."}, "[5]": {"details": "before treatment (baseline), drug treatment group, 0.1% eye drops"}}}
{"substance": "TAT-N16 peptide: cell-penetrating artificial peptide, sequence SEQ ID NO: 2, constructed by linking the peptide N16 to a TAT sequence; P55PIK inhibitor (YGRKKRRQRRRMMPYSTELIFYIEMDP)", "values": [{"measurement": "Tear secretion volume compared with blank control group and solvent control group", "setting": "[1]; 4th day of treatment", "result": "significantly higher"}, {"measurement": "Schirmer's test I values (x ± s)", "setting": "[1]; 4 days of treatment, 0.1% eye drops four times a day", "result": "5.14 ± 0.29", "unit": "mm"}, {"measurement": "Tear secretion volume compared with blank control group and solvent control group", "setting": "[1]; 7 days of continuous treatment, P<0.05", "result": "significantly higher"}, {"measurement": "Schirmer's test I values (x ± s)", "setting": "[1]; 7 days of treatment, 0.1% eye drops four times a day", "result": "5.88 ± 0.63", "unit": "mm"}, {"measurement": "Schirmer's test I values (x ± s)", "setting": "[1]; [5]", "result": "4.19 ± 0.24", "unit": "mm"}, {"measurement": "Tear secretion compared with the control groups", "setting": "[2]; 4th and 7th day of treatment, P<0.05", "result": "significantly higher"}, {"measurement": "Schirmer's test II values (x ± s, n = 6)", "setting": "[2]; after 4 days of treatment, 0.1% eye drops four times a day", "result": "5.74 ± 1.59", "unit": "mm"}, {"measurement": "Schirmer's test II values (x ± s, n = 6)", "setting": "[2]; after 7 days of treatment, 0.1% eye drops four times a day", "result": "8.58 ± 1.73", "unit": "mm"}, {"measurement": "Schirmer's test II values (x ± s, n = 6)", "setting": "[2]; [5]", "result": "3.29 ± 1.34", "unit": "mm"}, {"measurement": "Tear film break-up time (BUT) values", "setting": "[3]; 0 d / before treatment (baseline), drug treatment group", "result": "8.24 ± 1.13", "unit": "s"}, {"measurement": "Tear film break-up time (BUT) values", "setting": "[3]; 4 d, 0.1% eye drops 2 drops, 3 times a day", "result": "11.72 ± 1.27", "unit": "s"}, {"measurement": "Tear film break-up time (BUT) values", "setting": "[3]; 7 d, 0.1% eye drops 2 drops, 3 times a day", "result": "15.31 ± 1.85", "unit": "s"}, {"measurement": "Goblet cell density (CIC examination) compared to before medication", "setting": "[4]", "result": "gradual increase"}]}
